{"source": "patent EP1433789A1", "about": "“Pyrrolopyrazines and their use as selective apoptosis inducers” (Aponetics AG, priority 2002, dated 2004)", "type_in_all_cases": "cell-based, human", "key": {"[1]": {"tested_on": "HeLa", "assay": "Caspase dependencies (Hoechst 33342 readout with zVAD / zFA)", "design": "key: 0: no effect; 1: weak effect; 2: strong effect", "experimental": "(§1) This assay is performed in 96 well tissue culture plates. Appropriate number of cells (adherent cells: 3 - 5*10^3, suspension cells: 8 - 10*10^3) are being seeded out in 80 µl complete medium. Adherent cells are incubated for 24 h for proper spreading out before addition of test compounds while suspension cells are immediately treated with test compounds after seeding out. The test compounds are added in 20 µl complete medium containing max 5% DMSO. The final compound concentrations in the assays are 10 µM, 3 µM,1 µM and 0.3 µM, respectively. After 24 h or 48 h incubation at culture conditions, 10 µl medium containing Hoechst 33342 dye (Sigma B-2261) at 2-5 µg/ml are added to each well. The assay plates are then further incubated for 30 minutes and subsequently analyzed with a standard inverted fluorescence microscope. The readout allows the determination of the fraction of apoptotic nuclei as well as other morphological criteria specific for apoptosis as a function of the treatment. The following scores are used: 0 relating to no activity, 1 relating to weak activity comprising less than 50% of the cells and score 2 relating to strong activity comprising more than 50% of the cells.\n(§2) Caspase dependencies are being evaluated by combining the compound treatment with the pan-caspase inhibitor zVAD or its control peptide zFA (ICN Pharmaceuticals # FK009 and FK029, respectively). Both peptides are being used at 20 µM concentration. In case of caspase dependencies a clear inhibition of the specific readout in all apoptosis tests should be detected. By comparing the readout of zVAD and zFA treated samples with the compound control it is possible to detect caspase resp. cystein proteinase dependencies. In case of inhibition by zVAD but not by zFA a clear caspase dependency is obvious. An inhibition by zVAD as well as by zFA points towards the involvement of cystein proteinases in the apoptotic cascade. […]"}, "[2]": {"tested_on": "KB", "assay": "Caspase dependencies (Hoechst 33342 readout with zVAD / zFA)", "design": "key: 0: no effect; 1: weak effect; 2: strong effect", "experimental": "as §1, §2"}, "[3]": {"tested_on": "H9", "assay": "Hoechst 33342 nuclear staining (Table 3)", "design": "key: 0 relating to no activity; 1 relating to weak activity comprising less than 50% of the cells; score 2 relating to strong activity comprising more than 50% of the cells", "summary_of_the_method": "(§3)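 Adherent cells (3-5×10^3, pre-spread 24 h) or suspension cells (8-10×10^3) treated with compounds at 10, 3, 1 and 0.3 µM for 24 or 48 h, then Hoechst 33342 stained for 30 min. Apoptotic nuclear morphology scored by fluorescence microscopy: 0 none, 1 weak (<50% cells), 2 strong (>50% cells).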"}, "[4]": {"tested_on": "PC-3", "assay": "Hoechst 33342 nuclear staining (Table 3)", "design": "key: 0 relating to no activity; 1 relating to weak activity comprising less than 50% of the cells; score 2 relating to strong activity comprising more than 50% of the cells", "summary_of_the_method": "as §3"}, "[5]": {"tested_on": "SKMEL 1", "assay": "Hoechst 33342 nuclear staining (Table 3)", "design": "key: 0 relating to no activity; 1 relating to weak activity comprising less than 50% of the cells; score 2 relating to strong activity comprising more than 50% of the cells", "summary_of_the_method": "as §3"}}, "data": [{"molecule": "CC1(C)Cc2ccccc2-c2c(Br)c3nc4ccccc4nc3n21", "note": "[No. 2, 13-Bromo-6,6-dimethyl-5,6-dihydro-6a,7,12-triaza-dibenzo[a,h]fluorene]", "values": [{"measurement": "nuclear fragmentation visualized by Hoechst 33342 staining", "setting": "[1]; 24h, conc 10, no peptide", "result": 2}, {"measurement": "nuclear fragmentation visualized by Hoechst 33342 staining", "setting": "[1]; 24h, conc 10, with zFA 20 µM", "result": 2}, {"measurement": "nuclear fragmentation visualized by Hoechst 33342 staining", "setting": "[1]; 24h, conc 10, with zVAD 20 µM", "result": 1}, {"measurement": "nuclear fragmentation visualized by Hoechst 33342 staining", "setting": "[1]; 48h, conc 10, no peptide", "result": 2}, {"measurement": "nuclear fragmentation visualized by Hoechst 33342 staining", "setting": "[1]; 48h, conc 10, with zFA 20 µM", "result": 2}, {"measurement": "nuclear fragmentation visualized by Hoechst 33342 staining", "setting": "[1]; 48h, conc 10, with zVAD 20 µM", "result": 2}, {"measurement": "nuclear fragmentation visualized by Hoechst 33342 staining", "setting": "[2]; 24h, conc 10, no peptide", "result": 2}, {"measurement": "nuclear fragmentation visualized by Hoechst 33342 staining", "setting": "[2]; 24h, conc 10, with zFA 20 µM", "result": 1}, {"measurement": "nuclear fragmentation visualized by Hoechst 33342 staining", "setting": "[2]; 24h, conc 10, with zVAD 20 µM", "result": 1}, {"measurement": "nuclear fragmentation visualized by Hoechst 33342 staining", "setting": "[2]; 48h, conc 10, no peptide", "result": 2}, {"measurement": "nuclear fragmentation visualized by Hoechst 33342 staining", "setting": "[2]; 48h, conc 10, with zFA 20 µM", "result": 2}, {"measurement": "nuclear fragmentation visualized by Hoechst 33342 staining", "setting": "[2]; 48h, conc 10, with zVAD 20 µM", "result": 2}, {"measurement": "Hoechst 33342 nuclear staining (fraction of apoptotic nuclei), score", "setting": "[3]; H9, 24h, 0.3 µM", "result": 0}, {"measurement": "Hoechst 33342 nuclear staining (fraction of apoptotic nuclei), score", "setting": "[3]; H9, 24h, 1 µM", "result": 0}, {"measurement": "Hoechst 33342 nuclear staining (fraction of apoptotic nuclei), score", "setting": "[3]; H9, 24h, 3 µM", "result": 0}, {"measurement": "Hoechst 33342 nuclear staining (fraction of apoptotic nuclei), score", "setting": "[3]; H9, 24h, 10 µM", "result": 0}, {"measurement": "Hoechst 33342 nuclear staining (fraction of apoptotic nuclei), score", "setting": "[3]; H9, 48h, 0.3 µM", "result": 0}, {"measurement": "Hoechst 33342 nuclear staining (fraction of apoptotic nuclei), score", "setting": "[3]; H9, 48h, 1 µM", "result": 0}, {"measurement": "Hoechst 33342 nuclear staining (fraction of apoptotic nuclei), score", "setting": "[3]; H9, 48h, 3 µM", "result": 0}, {"measurement": "Hoechst 33342 nuclear staining (fraction of apoptotic nuclei), score", "setting": "[3]; H9, 48h, 10 µM", "result": 0}, {"measurement": "Hoechst 33342 nuclear staining (fraction of apoptotic nuclei), score", "setting": "[4]; PC-3, 24h, 0.3 µM", "result": 0}, {"measurement": "Hoechst 33342 nuclear staining (fraction of apoptotic nuclei), score", "setting": "[4]; PC-3, 24h, 1 µM", "result": 0}, {"measurement": "Hoechst 33342 nuclear staining (fraction of apoptotic nuclei), score", "setting": "[4]; PC-3, 24h, 3 µM", "result": 0}, {"measurement": "Hoechst 33342 nuclear staining (fraction of apoptotic nuclei), score", "setting": "[4]; PC-3, 24h, 10 µM", "result": 0}, {"measurement": "Hoechst 33342 nuclear staining (fraction of apoptotic nuclei), score", "setting": "[4]; PC-3, 48h, 0.3 µM", "result": 0}, {"measurement": "Hoechst 33342 nuclear staining (fraction of apoptotic nuclei), score", "setting": "[4]; PC-3, 48h, 1 µM", "result": 0}, {"measurement": "Hoechst 33342 nuclear staining (fraction of apoptotic nuclei), score", "setting": "[4]; PC-3, 48h, 3 µM", "result": 0}, {"measurement": "Hoechst 33342 nuclear staining (fraction of apoptotic nuclei), score", "setting": "[4]; PC-3, 48h, 10 µM", "result": "2 (score 2 relating to strong activity comprising more than 50% of the cells)"}, {"measurement": "Hoechst 33342 nuclear staining (fraction of apoptotic nuclei), score", "setting": "[5]; SKMEL 1, 24h, 0.3 µM", "result": 0}, {"measurement": "Hoechst 33342 nuclear staining (fraction of apoptotic nuclei), score", "setting": "[5]; SKMEL 1, 24h, 1 µM", "result": 0}, {"measurement": "Hoechst 33342 nuclear staining (fraction of apoptotic nuclei), score", "setting": "[5]; SKMEL 1, 24h, 3 µM", "result": 0}, {"measurement": "Hoechst 33342 nuclear staining (fraction of apoptotic nuclei), score", "setting": "[5]; SKMEL 1, 24h, 10 µM", "result": 0}, {"measurement": "Hoechst 33342 nuclear staining (fraction of apoptotic nuclei), score", "setting": "[5]; SKMEL 1, 48h, 0.3 µM", "result": 0}, {"measurement": "Hoechst 33342 nuclear staining (fraction of apoptotic nuclei), score", "setting": "[5]; SKMEL 1, 48h, 1 µM", "result": 0}, {"measurement": "Hoechst 33342 nuclear staining (fraction of apoptotic nuclei), score", "setting": "[5]; SKMEL 1, 48h, 3 µM", "result": 0}, {"measurement": "Hoechst 33342 nuclear staining (fraction of apoptotic nuclei), score", "setting": "[5]; SKMEL 1, 48h, 10 µM", "result": 0}]}]}
